Experimental data published in ChEMBL document CHEMBL1201862, “PubChem BioAssay data set” (2004).
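In this assay, cells in 96-well plates receive the compound at five concentrations for 48 hours. Endpoints are linearly interpolated between the surrounding concentrations. At the GI50, growth is halved.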 Active and inactive are the calls of the source. No stated cut-off is given here; in the data, active = GI50 up to about 1.1 µM and inactive = higher.

Legend:
Assay in all cases: NCI tumour cell line growth inhibition, 48 h
786-0 = system: 786-0
A498 = system: A498
A549 = system: A549
ACHN = system: ACHN
BT-549 = system: BT-549
CAKI-1 = system: CAKI-1
CCRF-CEM = system: CCRF-CEM
COLO 205 = system: COLO 205
DU-145 = system: DU-145
EKVX = system: EKVX
HCC 2998 = system: HCC 2998
HCT-116 = system: HCT-116
HCT-15 = system: HCT-15
HL-60 = system: HL-60
HOP-62 = system: HOP-62
HOP-92 = system: HOP-92
HT-29 = system: HT-29
Hs-578T = system: Hs-578T
IGROV-1 = system: IGROV-1
K562 = system: K562
KM12 = system: KM12
LOX IMVI = system: LOX IMVI
M14 = system: M14
MCF7 = system: MCF7
MDA-MB-231 = system: MDA-MB-231
MDA-MB-435 = system: MDA-MB-435
MDA-N = system: MDA-N
MOLT-4 = system: MOLT-4
Malme-3M = system: Malme-3M
NCI-H226 = system: NCI-H226
NCI-H23 = system: NCI-H23
NCI-H460 = system: NCI-H460
NCI-H522 = system: NCI-H522
NCI/ADR-RES = system: NCI/ADR-RES
OVCAR-3 = system: OVCAR-3
OVCAR-4 = system: OVCAR-4
OVCAR-5 = system: OVCAR-5
OVCAR-8 = system: OVCAR-8
RPMI-8226 = system: RPMI-8226
RXF 393 = system: RXF 393
SF-268 = system: SF-268
SF-295 = system: SF-295
SK-MEL-28 = system: SK-MEL-28
SK-MEL-2 = system: SK-MEL-2
SK-MEL-5 = system: SK-MEL-5
SK-OV-3 = system: SK-OV-3
SN12C = system: SN12C
SNB-75 = system: SNB-75
SR = system: SR
SW-620 = system: SW-620
T47D = system: T47D
U-251 = system: U-251
UACC-257 = system: UACC-257
UACC-62 = system: UACC-62
UO-31 = system: UO-31
PC-3 = system: PC-3
SF-539 = system: SF-539
SNB-19 = system: SNB-19
TK-10 = system: TK-10

SMILES: CN(C)C(=S)SCC(=O)Nc1ccccc1
- GI50 (786-0): > 100 µM (inactive)
- GI50 (A498): > 100 µM (inactive)
- GI50 (A549): > 100 µM (inactive)
- GI50 (ACHN): > 100 µM (inactive)
- GI50 (BT-549): > 100 µM (inactive)
- GI50 (CAKI-1): > 100 µM (inactive)
- GI50 (CCRF-CEM): > 100 µM (inactive)
- GI50 (COLO 205): > 100 µM (inactive)
- GI50 (DU-145): > 100 µM (inactive)
- GI50 (EKVX): > 100 µM (inactive)
- GI50 (HCC 2998): > 100 µM (inactive)
- GI50 (HCT-116): > 100 µM (inactive)
- GI50 (HCT-15): > 100 µM
- GI50 (HL-60): > 100 µM (inactive)
- GI50 (HOP-62): > 100 µM (inactive)
- GI50 (HOP-92): > 100 µM (inactive)
- GI50 (HT-29): > 100 µM (inactive)
- GI50 (Hs-578T): > 100 µM (inactive)
- GI50 (IGROV-1): > 100 µM (inactive)
- GI50 (K562): > 100 µM (inactive)
- GI50 (KM12): > 100 µM (inactive)
- GI50 (LOX IMVI): > 100 µM (inactive)
- GI50 (M14): > 100 µM (inactive)
- GI50 (MCF7): > 100 µM (inactive)
- GI50 (MDA-MB-231): > 100 µM (inactive)
- GI50 (MDA-MB-435): > 100 µM (inactive)
- GI50 (MDA-N): > 100 µM (inactive)
- GI50 (MOLT-4): > 100 µM (inactive)
- GI50 (Malme-3M): > 100 µM (inactive)
- GI50 (NCI-H226): > 100 µM (inactive)
- GI50 (NCI-H23): > 100 µM (inactive)
- GI50 (NCI-H460): > 100 µM (inactive)
- GI50 (NCI-H522): 57.9 µM (inactive)
- GI50 (NCI/ADR-RES): > 100 µM (inactive)
- GI50 (OVCAR-3): > 100 µM (inactive)
- GI50 (OVCAR-4): > 100 µM (inactive)
- GI50 (OVCAR-5): > 100 µM (inactive)
- GI50 (OVCAR-8): > 100 µM (inactive)
- GI50 (RPMI-8226): 94.2 µM (inactive)
- GI50 (RXF 393): > 100 µM (inactive)
- GI50 (SF-268): > 100 µM (inactive)
- GI50 (SF-295): > 100 µM (inactive)
- GI50 (SK-MEL-28): 80.4 µM (inactive)
- GI50 (SK-MEL-2): > 100 µM (inactive)
- GI50 (SK-MEL-5): > 100 µM (inactive)
- GI50 (SK-OV-3): > 100 µM (inactive)
- GI50 (SN12C): > 100 µM (inactive)
- GI50 (SNB-75): > 100 µM (inactive)
- GI50 (SR): > 100 µM (inactive)
- GI50 (SW-620): > 100 µM (inactive)
- GI50 (T47D): > 100 µM (inactive)
- GI50 (U-251): > 100 µM (inactive)
- GI50 (UACC-257): > 100 µM (inactive)
- GI50 (UACC-62): > 100 µM (inactive)
- GI50 (UO-31): > 100 µM (inactive)

SMILES: COC(=O)Cc1c(C2=Nc3ccccc3C2(O)CC(=O)OC)[nH]c2ccccc12 (stereo not given)
- GI50 (786-0): 41.5 µM (inactive)
- GI50 (A498): > 100 µM (inactive)
- GI50 (A549): 94 µM (inactive)
- GI50 (ACHN): 34.9 µM (inactive)
- GI50 (BT-549): > 100 µM (inactive)
- GI50 (CAKI-1): 23 µM (inactive)
- GI50 (CCRF-CEM): 20.1 µM (inactive)
- GI50 (COLO 205): 20.3 µM (inactive)
- GI50 (DU-145): > 100 µM (inactive)
- GI50 (EKVX): 36.6 µM (inactive)
- GI50 (HCT-116): 31.8 µM (inactive)
- GI50 (HCT-15): 40.9 µM
- GI50 (HL-60): 22 µM (inactive)
- GI50 (HOP-62): > 100 µM (inactive)
- GI50 (HOP-92): 26.5 µM (inactive)
- GI50 (HT-29): > 100 µM (inactive)
- GI50 (Hs-578T): 24.2 µM (inactive)
- GI50 (IGROV-1): 1.09 µM (active)
- GI50 (K562): 27 µM (inactive)
- GI50 (KM12): 58.6 µM (inactive)
- GI50 (LOX IMVI): 99.3 µM (inactive)
- GI50 (M14): 78.2 µM (inactive)
- GI50 (MDA-MB-231): 45.2 µM (inactive)
- GI50 (MDA-MB-435): > 100 µM (inactive)
- GI50 (MDA-N): > 100 µM (inactive)
- GI50 (MOLT-4): 19.7 µM (inactive)
- GI50 (Malme-3M): 22.6 µM (inactive)
- GI50 (NCI-H226): > 100 µM (inactive)
- GI50 (NCI-H23): > 100 µM (inactive)
- GI50 (NCI-H460): > 100 µM (inactive)
- GI50 (NCI-H522): 18.9 µM (inactive)
- GI50 (NCI/ADR-RES): > 100 µM (inactive)
- GI50 (OVCAR-3): 62.1 µM (inactive)
- GI50 (OVCAR-5): 54.6 µM (inactive)
- GI50 (OVCAR-8): 49.3 µM (inactive)
- GI50 (PC-3): 30 µM (inactive)
- GI50 (RPMI-8226): 25.4 µM (inactive)
- GI50 (RXF 393): 97.9 µM (inactive)
- GI50 (SF-268): > 100 µM (inactive)
- GI50 (SF-295): 45.8 µM (inactive)
- GI50 (SF-539): 29.6 µM (inactive)
- GI50 (SK-MEL-28): 61.5 µM (inactive)
- GI50 (SK-MEL-2): > 100 µM (inactive)
- GI50 (SK-MEL-5): 60.4 µM (inactive)
- GI50 (SK-OV-3): > 100 µM (inactive)
- GI50 (SN12C): 68.5 µM (inactive)
- GI50 (SNB-19): 55.8 µM (inactive)
- GI50 (SNB-75): > 100 µM (inactive)
- GI50 (SW-620): 47.3 µM (inactive)
- GI50 (T47D): 15.5 µM (inactive)
- GI50 (TK-10): > 100 µM (inactive)
- GI50 (U-251): 34.5 µM (inactive)
- GI50 (UACC-257): > 100 µM (inactive)
- GI50 (UACC-62): > 100 µM (inactive)
- GI50 (UO-31): 68.5 µM (inactive)
